According to patent publication US20140294729A1, “METHODS FOR IDENTIFICATION AND USE OF AGENTS TARGETING CANCER STEM CELLS” (Whitehead Institute for Biomedical Research, priority 2008, published 2014):
“Also recorded” adds a separate entry of the source. *1 amine or outer side, *2 acyl side, *3 side chain or, on linkers, in order; H or OH if unused. Where a SMILES comes first, the peptide text is derived from it. Bridges are numbered along the chain shown (N, C = ends). Roman numbers before positions name the chains, in order. [ ]: non-standard residue; d: D form. Actinocin(9to1) = Cc1c2oc3c(C)ccc(C(=O)[*:1])c3nc-2c(C(=O)[*:2])c(N)c1=O; NMeV = CN[C@H](C(=O)O)C(C)C; Sar = CNCC(=O)O

Key:
HMLEshEcad cells [1] = test: Resistance to cytotoxic agents, immortalized HMLEshCntrl vs HMLEshEcad (MTS viability); assay type: cell-based, human; settings: three concentrations, FIG. 2B
Method: (§1) FIGS. 2A-2D depict that passage through the EMT leads to resistance to conventional chemotherapy drugs. FIG. 2A depicts dose response curves of transformed HMLERshCntrl (light gray line) and HMLERshEcad (dark gray line) cells treated with Paclitaxel and Doxorubicin. Dotted line denotes the 50% fraction surviving. […] FIG. 2B depicts the response of immortalized cells to chemotherapy drugs. HMLEshCntrl and HMLEshEcad cells were treated with the indicated drugs at three concentrations for 3 days and assayed for viability using the MTS assay. While Doxorubucin, Actinomycin D, Paclitaxel and Campthotecin are chemotherapeutic drugs, Staurosporine is a general kinase inhibitor that potently induce apoptosis. FIGS. 2C and 2D depict paclitaxel treatment leads to selective expansion of a minority cell population that has undergone an EMT. Control HMLE cells and GFP expressing HMLEshEcad cells were mixed at a ratio of 20:1 and seeded onto 6-well plates in triplicate. DMSO or Paclitaxel at 2.5 nm or 10 nm concentration was added onto the mixed cell populations 1 day after seeding followed by a 3 day incubation. The number of GFP-positive cells at the end of treatment were analyzed by flow cytometry. […] Note the increase in GFP positivity from 5% to 14% upon […] Paclitaxel treatment.
However, we postulated that the differential drug sensitivity observed was, rather, a consequence of the respective differentiation states of the immortalized cells from which the cancer cell lines were derived. To directly examine this hypothesis, we treated HMLEsiGFP and HMLEsiEcad cells for a period of […] with a series of chemical compounds at 3 different concentrations each. Included in these compounds were the established chemotherapy drugs Doxorubicin, Paclitaxel, Actinomycin D, Camptothecin as well as a broad kinase inhibitor, Staurosporine.
(§2) Doxorubicin, paclitaxel, actinomycin D, campthotecin and staurosporine were purchased from Sigma and dissolved in dimethyl sulfoxide (dmso). 5000 cells in 100 ul of medium were plated per well in 96-well plates. 24 hrs after seeding, compounds at the indicated concentration were added to wells (5 wells per each concentration). Dmso treatment was used as negative control. Cell viability was measured after 72 hrs using the CellTiter96 AQueous Assay (Promega) according to manufacturer's instructions. Dose response curves were generated with GraphPad Prism software (GraphPad Software, Inc.).

HMLE-Twist cells [2] = test: Co-culture of GFP-expressing HMLE cells and unlabelled HMLE-Twist cells, FACS for GFP positivity; assay type: cell-based, human; settings: FIG. 4C; for GFP-positive fraction relative to DMSO-treated controls: GFP-labeled HMLE + unlabeled HMLE-Twist
Method: (§3) FIG. 4A depicts dose response curves of HMLEshCntrl (A, light gray curve) and HMLEshEcad (A, dark gray curve) cells treated with the 8 compounds identified during the initial screen. 1000 cells of each line were seeded onto 384 well plates and treated with 8 different concentrations of compounds within a 2.5 log range. The cell viability after 3 day treatment was measured by Cell-Titer-Glo. […] FIG. 4B depicts dose response curves of HMLEshCntrl (curve with square data points) and HMLE-Twist (curve with triangular data points) cells treated with the same compounds as in (A). Note that selectivity of Salinomycin, Abamectin, Etoposide and Nigericin (Top, Left-to-Right) is retained even though a different method of EMT induction is used. […] 1 Day after seeding DMSO, Salinomycin (1.25 or 5 μM) or Abamectin (0.25 or 1.25 μM) was added at the indicated concentration. As the GFP vector contains a Blasticidin resistance gene, we used Blasticidin treatment as a positive control for the expansion of GFP-expressing control HMLE cells. After 3 day incubation the mix population of cells were analyzed by flow cytometry and the percentage of GFP-positive cells were determined. […] FIG. 4D depicts dose response curves of transformed HMLERshCntrl (light gray line) and HMLERshEcad (dark gray lines) cells treated with Salinomycin and Abamectin. Dotted line denotes the 50% fraction surviving.
To examine the effects of salinomycin and abamectin treatment on heterogeneous populations of epithelial cells that have and epithelial cells that have not undergone EMT, we co-mixed GFP-labeled HMLE cells with unlabeled HMLE-Twist cells, treating the resulting co-cultures with compounds. As a positive control for this experiment we treated co-cultures with blasticidin, which selects for the differentiated HMLE-GFP cells, which harbor a blasticidin-resistance gene.
For the mix experiments, unlabelled and GFP-labeled cells were mixed at the indicated ratios and seeded onto 6-well plates. Triplicate wells were then treated with dmso or the compounds (paclitaxel, salinomycin, abamectin and blasticidin) for 48 hrs. The cells were washed with PBS, trypsinized and analyzed by FACS for GFP positivity.

HMLE-Twist cells [3] = test: Dose-response viability of HMLEshCntrl vs HMLE-Twist cells; assay type: cell-based, human; settings: EMT induced by Twist, FIG. 4B
Method: as §3
(§4) Individual compounds were purchased from Sigma and dissolved in DMSO with the exception of nigericin which was dissolved in 100% ethanol. Activity of the compounds were quantified by generating dose-response curves for HMLE-shCntrl, HMLE-shEcad and HMLE-Twist under the same cell density and culture conditions described for the initial screen, using the 384-well plate based system.

SUM159 cells = test: FACS of the CD44hi/CD24lo fraction in treated SUM159 cells; assay type: cell-based; settings: FIGS. 5C and 5D
Excerpt: FIG. 5A depicts flow cytometry analysis of Sum159, MDA-MB-231 and T47D cell lines with respect to cell surface expression of CD44 and CD24. Note that while the majority of cells in Sum159 and MDA-MB-231 line contain large amounts of CSCs, T47D cells have very few such cells. FIG. 5B depicts dose response curves of Sum159, MDA-MB-231 and T47D cell treated with Salinomycin.
To further characterize the effects of compound treatment on cancer cells, we conducted FACS analyses on SUM159 cells treated with salinomycin, abamectin, taxol, or DMSO.
The anti-CD44 (clone G44-26) antibody conjugated to APC and the anti-CD24 antibody (clone ML5) conjugated to PE used for FACS analysis were obtained from BD Bioscience and used according to the manufacturer's instructions. Propidium Iodide (5 ug/ml) was included in the staining protocol to distinguish live cells.

HMLEshEcad cells [4] = test: Dose-response viability of HMLEshCntrl vs HMLEshEcad cells (validation of hits, 384-well, Cell-Titer-Glo); assay type: cell-based, human; settings: FIG. 4A; for IC50 fold lower for HMLEshEcad cells vs HMLEshCntrl cells: 3 day treatment, 8 concentrations; for selective toxicity towards HMLEshEcad cells relative to HMLEshCntrl cells: dose response on retesting
Method: as §3
We pursued 8 of the 32 compounds for further study and evaluated their effects across a range of doses.
For each of these compounds, we evaluated the effect on cell viability across a series of doses for sibling cell lines either induced into or not induced into EMT.
Information about the general automated HTS protocol is available online at broad.harvard.edu/chembio/index.html. The assay was initiated by plating 40 μL of medium containing 1000 cells/well into white 384-well opaque-bottom plates (Nunc, Rochester, N.Y.) using an automated plate filler (Bio-Tek μFiller; Winsooki, Vt.) and allowing the cells to adhere for 24 hours. 100 nL of compound stock solutions in dmso was transferred from stock plates into the 384-well assay plates using an automated pin-based compound transfer robot (CyBio CyBi-Well vario; Woburn, Mass.). For most compounds the final concentration in each well was calculated to be 10 uM.
The screen was performed in duplicate. For negative controls, entire dmso-treated control plates were employed, in addition to dmso-only control wells that were incorporated into each compound assay plate. The cells were assayed for luciferase activity with the addition 20 ul of CellTiter-Glo Luminescent Cell Viability Assay solution (Promega). The luminescent signal from each plate was detected using an automated plate reader (Perkin-Elmer Envision 1; Wellesley, Mass.).
as §4

HMLERshEcad cells [5] = test: Dose response of transformed HMLERshCntrl vs HMLERshEcad cells to screen hits; assay type: cell-based, human; settings: range of concentrations, FIG. 4D
Method: as §3

HMLERshEcad cells [6] = test: Resistance to cytotoxic agents, transformed HMLERshCntrl vs HMLERshEcad dose response; assay type: cell-based, human; settings: FIG. 2A
Method: as §1
Since the HMLERsiEcad cells have a 100-fold increase in the frequency of cells capable of seeding tumors, we examined their response to two commonly used chemotherapy drugs, relative to HMLERsiGFP controls. We treated cultured HMLERsiGFP and HMLERsiEcad cells for a period of 3 days with either doxorubicin or paclitaxel, at various concentrations.
as §2

Compound: CC[C@@]1(O)C(=O)OCc2c1cc1n(c2=O)Cc2cc3ccccc3nc2-1 [camptothecin]
- resistance of HMLEshEcad cells relative to HMLEshCntrl control cells (HMLEshEcad cells [1]): resistant
- resistance of HMLEshEcad cells relative to HMLEshCntrl control cells (HMLEshEcad cells [1]; listed as Camptothecin): increased resistance

Compound: CN(CC[C@H](N)CC(=O)N[C@H]1C=C[C@H](n2ccc(N)nc2=O)O[C@@H]1C(=O)O)C(=N)N [blasticidin]
- GFP-positive fraction relative to DMSO-treated controls (HMLE-Twist cells [2]): increase

Compound: abamectin
- selectivity for HMLE-Twist cells vs HMLEshCntrl; dose-response curves compared with HMLEshEcad (HMLE-Twist cells [3]): is retained
- percent of cells in the CD44hi/CD2410 fraction relative to DMSO controls (SUM159 cells): did not significantly alter
- IC50 fold lower for HMLEshEcad cells vs HMLEshCntrl cells (HMLEshEcad cells [4]): ~10 fold
- selective toxicity towards HMLEshEcad cells relative to HMLEshCntrl cells (HMLEshEcad cells [4]): moderate to strong selectivity; also recorded: strong specificity
- selective toxicity towards HMLEshEcad cells relative to HMLEshCntrl cells (HMLEshEcad cells [4]; listed as Abamectin): selective toxicity
- GFP-positive fraction relative to DMSO-treated controls (HMLE-Twist cells [2]): increase
- proportion of HMLETwist cells in co-culture with control cells (HMLE-Twist cells [2]; Salinomycin 1.25 or 5 μM, Abamectin 0.25 or 1.25 μM): dose-dependent decrease; also recorded: selection against the GFP-negative HMLE-twist cells
- selective toxicity for HMLERshEcad (MT tumorigenic) cells (HMLERshEcad cells [5]): modest but selective toxicity

Compound: Oc1cccc(O)c1 [Resorcinol]
- selective toxicity towards HMLEshEcad cells relative to HMLEshCntrl cells (HMLEshEcad cells [4]): do not display such a behaviour

Compound: CO[C@@H]1C[C@@H](C[C@H]2CC[C@H](C)[C@H]([C@@H](C)C(=O)O)O2)O[C@]2(O[C@](C)([C@H]3CC[C@@](C)([C@@H]4O[C@@H]([C@H]5O[C@@](O)(CO)[C@H](C)C[C@@H]5C)C[C@@H]4C)O3)C[C@H]2C)[C@@H]1C [nigericin]
- selectivity for HMLE-Twist cells vs HMLEshCntrl; dose-response curves compared with HMLEshEcad (HMLE-Twist cells [3]): is retained
- IC50 fold lower for HMLEshEcad cells vs HMLEshCntrl cells (HMLEshEcad cells [4]): ~7 fold
- selective toxicity towards HMLEshEcad cells relative to HMLEshCntrl cells (HMLEshEcad cells [4]): weaker selectivity; also recorded: modest selective toxicity
- selective toxicity towards HMLEshEcad cells relative to HMLEshCntrl cells (HMLEshEcad cells [4]; listed as Nigericin): selective toxicity

Compound: c1ccc2nc3ccccc3cc2c1 [Acridine]
- selective toxicity towards HMLEshEcad cells relative to HMLEshCntrl cells (HMLEshEcad cells [4]): do not display such a behaviour

Compound: COc1cccc2c1C(=O)c1c(O)c3c(c(O)c1C2=O)C[C@@](O)(C(=O)CO)C[C@@H]3O[C@H]1C[C@H](N)[C@H](O)[C@H](C)O1 [doxorubicin]
- IC50 for HMLERsiEcad cells relative to IC50 for HMLERsiGFP cells (HMLERshEcad cells [6]; 3 days, various concentrations): significantly higher
- resistance of HMLERshEcad cells compared to HMLERshCntrl cells (HMLERshEcad cells [6]): significantly more resistant
- resistance of HMLERshEcad cells compared to HMLERshCntrl cells (HMLERshEcad cells [6]; listed as Doxorubicin): more resistant
- resistance of HMLEshEcad cells relative to HMLEshCntrl control cells (HMLEshEcad cells [1]): increased resistance

Compound: Cc1c2oc3c(C)ccc(C(=O)N[C@@H]4C(=O)N[C@H](C(C)C)C(=O)N5CCC[C@H]5C(=O)N(C)CC(=O)N(C)[C@@H](C(C)C)C(=O)O[C@@H]4C)c3nc-2c(C(=O)N[C@@H]2C(=O)N[C@H](C(C)C)C(=O)N3CCC[C@H]3C(=O)N(C)CC(=O)N(C)[C@@H](C(C)C)C(=O)O[C@@H]2C)c(N)c1=O [actinomycin D] (I: T[dV]P[Sar][NMeV] / II: T[dV]P[Sar][NMeV]; ester I:1-I:C, II:1-II:C; linker I:N-II:N via Actinocin(9to1))
- resistance of HMLEshEcad cells relative to HMLEshCntrl control cells (HMLEshEcad cells [1]): resistant
- resistance of HMLEshEcad cells relative to HMLEshCntrl control cells (HMLEshEcad cells [1]; listed as Actinomycin D): increased resistance

Compound: Clc1ccccc1C(c1ccccc1)(c1ccccc1)n1ccnc1 [Clotrimazole]
- selective toxicity towards HMLEshEcad cells relative to HMLEshCntrl cells (HMLEshEcad cells [4]): do not display such a behaviour

Compound: CN[C@@H]1C[C@H]2O[C@@](C)([C@@H]1OC)n1c3ccccc3c3c4c(c5c6ccccc6n2c5c31)C(=O)NC4 [staurosporine]
- resistance of HMLEshEcad cells relative to HMLEshCntrl control cells (HMLEshEcad cells [1]): resistant
- resistance of HMLEshEcad cells relative to HMLEshCntrl control cells (HMLEshEcad cells [1]; listed as Staurosporine): increased resistance
